Reference: patent US8883827B2, “Azole derivatives as WTN pathway inhibitors” (Oslo University Hospital HF, priority 2009, dated 2014)

How the values were obtained:
Format in all cases: cell-based
SW480 cells = assay: Growth inhibition (GI50) MTS assay; details: Homo sapiens, 72 h
Experimental: Growth inhibition curves were prepared using SW480 cells, prepared essentially according to Example 23. SW480 cells (3000 cells per well) were seeded on 96 well plates (eight replicates per treatment). 24 hours later and daily thereafter, cell culture media (including 10% FBS) was mixed with various compound concentrations or with 0.1% DMSO vehicle and then added to the wells. Sixteen wells of seeded control cells, defining incubation time zero (to =24 hour after cell seeding), were incubated with […] substrate in 100 μl of phenol-free D-MEM (Invitrogen) for 2 hours, as described in the CellTiter 96® AQueous Non-Radioactive Cell Proliferation Assay protocol (MTS, Promega). The A490 was recorded. The treatment samples were likewise measured after 72 hours. The following formula was used to determine the single well relative A490 sample values: ((Sample A490−Average A490t0)*100)/(Average A490t720.1% DMSO control−Average A490t0)
XLfit (idbs) was used to determine the IC50 and GI50 values in inhibition experiments. The data were fit to the following formulae:
GI50: Eadie-Hofstee Model: fit=(A+((B*x)/((C*(D+1))+x))) inv=(((y−A)*(C*(D+1)))/((A+B)−y)) res=(y−fit)

control cell lines = assay: MTS cell proliferation assay, Table 6, mean; details: HeLa, HCT116, LS174T; 10 μM, 72 h
Source text: (§1) Control cell lines used were HeLa cells (cell growth not controlled by canonical Wnt signalling) and colorectal cancer cell lines LS174T and HCT116 (with mutant β-catenin N-terminal phosphorylation sites). Target cell lines used were colorectal cancer cell lines WiDr, LoVo, HCT-8, HCT-15, COL0205, DLD-1, HT-29, SW620, SW1463, SW480 which all carry a mutant APC gene. Target cells, along with L Wnt3a-expressing cells and HEK293 cells, were purchased from ATCC (American Type Culture Collection) and maintained according to the supplier's recommendations. Wnt3a containing conditioned media (Wnt3a-CM) from L Wnt3a expressing cells was harvested as described by ATCC.
(§2) For the experiment giving the results shown in Table 6, cells were exposed to cell culture medium (including 10% FBS) containing 10 μM of the compound to be tested 24 hours after seeding (3000 cells on 96-well plates). Medium was changed daily. After 72 hours, an MTS assay (CellTiter 96® AQueous Non-Radioactive Cell Proliferation Assay—Promega) was carried out according to the standard procedure. 0.1% DMSO was used as a control.
(§3) The quantity of reduced MTS product (as measured by the absorbance at 490 nm) is directly proportional to the number of living cells in the culture and thus allows a direct comparison of cell proliferation in each case. DMSO was used as a control. The following formula was used to determine single well relative A490 sample values: ((Sample A490−Average A490t0)*100)/(Average A490t720.1% DMSO control−Average A490t0)
(§4) Data shown are A490-percentage values relative to the DMSO control, calculated as described above, and represent averages from 2 to 4 independent experiments (except SW1463 cells treated with IWR-1 which reports only a single experiment). Compounds IWR-1 and XAV939 are known Wnt pathway inhibitors.

APC mutant cell lines = assay: MTS cell proliferation assay, Table 6, mean; details: 10 μM, 72 h; for Ratio of means: APC mutant cell lines versus control cell lines; for Mean proliferation (APC mutant cell lines): ten APC mutant colorectal lines
Source text: as §1, §2, §3, §4

LoVo = assay: MTS cell proliferation assay, Table 6; details: 10 μM, 72 h, relative to DMSO control
Source text: as §1, §2, §3, §4

WiDr = assay: MTS cell proliferation assay, Table 6; details: 10 μM, 72 h, relative to DMSO control
Source text: as §1, §2, §3, §4

HeLa cells = assay: MTS cell proliferation assay, Table 6; details: HeLa (control); 10 μM, 72 h; relative to DMSO control
Source text: as §1, §2, §3, §4

HCT-8 = assay: MTS cell proliferation assay, Table 6; details: 10 μM, 72 h, relative to DMSO control
Source text: as §1, §2, §3, §4

HT-29 = assay: MTS cell proliferation assay, Table 6; details: 10 μM, 72 h, relative to DMSO control
Source text: as §1, §2, §3, §4

COLO205 = assay: MTS cell proliferation assay, Table 6; details: 10 μM, 72 h, relative to DMSO control
Source text: as §1, §2, §3, §4

SW620 = assay: MTS cell proliferation assay, Table 6; details: 10 μM, 72 h, relative to DMSO control
Source text: as §1, §2, §3, §4

DLD-1 = assay: MTS cell proliferation assay, Table 6; details: 10 μM, 72 h, relative to DMSO control
Source text: as §1, §2, §3, §4

SW1463 = assay: MTS cell proliferation assay, Table 6; details: 10 μM, 72 h, relative to DMSO control
Source text: as §1, §2, §3, §4

HCT116 = assay: MTS cell proliferation assay, Table 6; details: HCT116 (control); 10 μM, 72 h; relative to DMSO control
Source text: as §1, §2, §3, §4

SW480 = assay: MTS cell proliferation assay, Table 6; details: 10 μM, 72 h, relative to DMSO control
Source text: as §1, §2, §3, §4

HCT-15 = assay: MTS cell proliferation assay, Table 6; details: 10 μM, 72 h, relative to DMSO control
Source text: as §1, §2, §3, §4

LS174T = assay: MTS cell proliferation assay, Table 6; details: LS174T (control); 10 μM, 72 h; relative to DMSO control
Source text: as §1, §2, §3, §4

canonical Wnt signaling [1] = assay: ST-Luc (SuperTOPFlash) Luciferase assay in HEK293 cells, 30% Wnt3a-CM; details: Homo sapiens, HEK293; 10 μM compound, 30% Wnt3a-CM, 24 h; relative to DMSO control
Outline: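 HEK293 cells were transiently co-transfected with SuperTOPFlash firefly luciferase and pRL-TK Renilla reporters, then treated 24 h with 10 μM compound in 30% Wnt3a-conditioned medium. Dual luciferase activity was read, and percent activity was expressed relative to DMSO control.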

canonical Wnt signaling [2] = assay: IC50 in STF/REN HEK293 cells, 50% Wnt3a-CM; details: Homo sapiens; STF/REN HEK293, 50% Wnt3a-CM, 24 h
Outline: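 HEK293 cells carrying STF/REN reporters seeded at 80,000/well on poly-L-lysine; after 24 h, exposed 24 h to compound in 50% Wnt3a-conditioned medium. Firefly and Renilla luciferase measured by Dual-Glo; IC50 fitted to a Langmuir binding isotherm.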

[3] = test system: SW480 colon carcinoma cells; assay: MTS cell proliferation assay, Table 5; details: Homo sapiens; SW480, 10 μM, 72 h; relative to DMSO control; read-out: Cell proliferation (%) for test compounds
Experimental: For the experiment giving the results shown in Table 5, cells (3000 per well) were seeded on 96 well plates (eight replicates per treatment). After 24 hours, and daily thereafter, cell culture medium (including 10% FBS) was mixed with 10 μM compounds or with 0.1% DMSO vehicle and then added to the wells. Sixteen wells of seeded control cells, defining incubation time zero (t0=24 hour after cell seeding), were incubated with 20 μl substrate in 100 μl phenol free D-MEM (Invitrogen) for 2 hours, as described in the CellTiter 96® AQueous Non-Radioactive Cell Proliferation Assay protocol (Promega). The A490 was recorded. The treatment samples were likewise measured after 72 hours.
as §3
The proliferation of SW480 cells (in percent) is the A492 value relative to that of the DMSO control.

Row | SMILES | GI50 (SW480 cells) [nM] | Mean proliferation (control cell lines) (control cell lines) [%] | Ratio of means (APC mutant cell lines) | Mean proliferation (APC mutant cell lines) (APC mutant cell lines) [%] | Cell proliferation (%) (LoVo) | Cell proliferation (%) (WiDr) | Cell proliferation (%) (HeLa cells) | Cell proliferation (%) (HCT-8) | Cell proliferation (%) (HT-29) | Cell proliferation (%) (COLO205) | Cell proliferation (%) (SW620) | Cell proliferation (%) (DLD-1) | Cell proliferation (%) (SW1463) | Cell proliferation (%) (HCT116) | Cell proliferation (%) (SW480) | Cell proliferation (%) (HCT-15) | Cell proliferation (%) (LS174T) | activity at 10 µM (canonical Wnt signaling [1]) [%] | IC50 (canonical Wnt signaling [2]) [nM] | activity at 10 µM [3] [%]
1 | Cc1ccc(-c2noc(CSc3nnc(-c4ccncc4)n3-c3ccccc3Cl)n2)cc1 [compound 43] | 8000 | 92 | 0.56 | 52 | 64 | 76 | 92 | 69 | 63 | 33 | 33 | 76 | 1 | 86 | 51 | 54 | 99 | 7.8 | 160 | 
2 | Cc1ccc(-c2nnc(CSc3nnc(-c4ccncc4)n3-c3ccccc3Cl)o2)cc1 [compound 60] |  | 95 | 0.58 | 55 | 67 | 70 | 92 | 51 | 58 | 53 | 50 | 78 | 12 | 87 | 59 | 54 | 105 | 17.3 | < 100 | 49
